Data reported in ChEMBL document CHEMBL1142881, “Structure-activity relationships of 19-norvitamin D analogs having a fluoroethylidene group at the C-2 position” (Bioorg Med Chem, 2007).
“And” between values parts separate entries of the source, which are not always exact repeats. Identical values can stand only once. Blank lines part the entries; values can stand above or below the molecule they belong to.

Tests used:
Vitamin D3 receptor = target: T1, Vitamin D3 receptor (Homo sapiens, UniProt P11473); test: […] of human VDR induced-transcriptional transactivation of luciferase reporter gene in COS7 cells after 24 hrs; format: cell-based, COS-7
T1 sequence (P11473 whole entry): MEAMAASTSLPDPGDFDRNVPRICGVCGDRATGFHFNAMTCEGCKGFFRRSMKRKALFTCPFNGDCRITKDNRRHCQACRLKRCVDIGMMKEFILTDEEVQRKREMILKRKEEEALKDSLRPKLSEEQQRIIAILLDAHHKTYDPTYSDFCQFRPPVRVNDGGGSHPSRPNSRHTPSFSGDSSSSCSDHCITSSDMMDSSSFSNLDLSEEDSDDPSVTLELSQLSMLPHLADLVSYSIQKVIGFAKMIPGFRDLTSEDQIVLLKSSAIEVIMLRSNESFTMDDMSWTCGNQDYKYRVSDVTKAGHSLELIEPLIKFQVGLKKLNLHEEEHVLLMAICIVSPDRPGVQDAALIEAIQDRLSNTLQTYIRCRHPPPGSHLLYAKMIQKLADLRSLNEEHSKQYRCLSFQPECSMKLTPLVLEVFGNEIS

[1] = target: T2, Vitamin D3 receptor (Rattus norvegicus) (UniProt P13053); test: Displacement of [3H]1-alpha,25-(OH)2D3 from rat recombinant VDR ligand-binding domain expressed in Escherichia coli BL21 realtive to 1-alpha,25-(OH)2D3
T2 sequence (whole entry): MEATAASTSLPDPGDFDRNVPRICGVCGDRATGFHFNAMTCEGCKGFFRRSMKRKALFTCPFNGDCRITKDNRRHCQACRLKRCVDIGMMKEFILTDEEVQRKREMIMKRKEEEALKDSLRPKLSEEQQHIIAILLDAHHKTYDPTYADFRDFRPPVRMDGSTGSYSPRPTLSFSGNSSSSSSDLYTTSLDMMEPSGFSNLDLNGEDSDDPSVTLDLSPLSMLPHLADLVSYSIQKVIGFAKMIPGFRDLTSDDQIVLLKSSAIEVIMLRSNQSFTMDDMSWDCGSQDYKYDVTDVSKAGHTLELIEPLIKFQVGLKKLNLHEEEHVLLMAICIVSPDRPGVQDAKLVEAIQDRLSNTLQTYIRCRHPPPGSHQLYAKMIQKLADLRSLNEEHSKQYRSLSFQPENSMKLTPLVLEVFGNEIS

[2] = target: T3, Vitamin D3 receptor (Homo sapiens) (UniProt P11473); test: Displacement of [3H]1-alpha,25-(OH)2D3 from thymus VDR realtive to 1-alpha,25-(OH)2D3
T3 sequence (whole entry): T1 sequence (P11473 whole entry)

[3] = target: T3, Vitamin D3 receptor (Homo sapiens); test: […] of human VDR induced-transcriptional transactivation of luciferase reporter gene in COS7 cells after 24 hrs relative to 1-alpha,25-(OH)2D3; format: cell-based; conditions: COS-7

SMILES: C[C@@H](CCCC(C)(C)O)C1CCC2/C(=C/C=C3C[C@@H](O)C(=CCF)[C@H](O)C3)CCCC21C (some centres undefined) [listing 1 of 3 here]
EC50 (Vitamin D3 receptor): 1.1 nM

SMILES: C[C@H](CCCC(C)(C)O)C1CCC2/C(=C/C=C3C[C@@H](O)C(=CCF)[C@H](O)C3)CCCC21C (some centres undefined) [listing 1 of 3 here]
Activity [1]: 0.77% and 0.05%

SMILES: C[C@@H](CCCC(C)(C)O)C1CCC2/C(=C/C=C3C[C@@H](O)C(=CCO)[C@H](O)C3)CCCC21C (some centres undefined)
Activity [2]: 0.02% and 1.6% | Activity [3]: 4.2 and 12.5

SMILES: C[C@H](CCCC(C)(C)O)C1CCC2/C(=C/C=C3C[C@@H](O)C(=CCO)[C@H](O)C3)CCCC21C (some centres undefined)
Activity [2]: 2% and 0.007%

The remaining lines, values ahead:

Activity [1]: 0.07% and 1.08%
SMILES: C[C@@H](CCCC(C)(C)O)C1CCC2/C(=C/C=C3C[C@@H](O)C(=CCF)[C@H](O)C3)CCCC21C (some centres undefined) [listing 2 of 3 here]

EC50 (Vitamin D3 receptor): 0.5 nM
SMILES: C[C@H](CCCC(C)(C)O)C1CCC2/C(=C/C=C3C[C@@H](O)C(=CCF)[C@H](O)C3)CCCC21C (some centres undefined) [listing 2 of 3 here]

EC50 (Vitamin D3 receptor): 2.2 nM
SMILES: C[C@H](CCCC(C)(C)O)C1CCC2/C(=C/C=C3C[C@@H](O)C(=CCF)[C@H](O)C3)CCCC21C (some centres undefined) [listing 3 of 3 here]

EC50 (Vitamin D3 receptor): 0.07 nM
SMILES: C[C@@H](CCCC(C)(C)O)C1CCC2/C(=C/C=C3C[C@@H](O)C(=CCF)[C@H](O)C3)CCCC21C (some centres undefined) [listing 3 of 3 here]
